Laboratory results reported in patent US20240360175A1, “PEPTIDE DERIVATIVES AND RELATED USES AS OREXIN AGONISTS” (Centessa Pharmaceuticals (UK) Limited, priority 2021, published 2024).
Read-outs that look alike come from different tables or passages of the source. Square brackets hold non-standard residues; d marks the D form. Ends that are not written are not given here. Peptide text beside a SMILES is read from it. * marks the point of attachment. Malonyl(2,2-Me2,histaminyl) = CC(C)(C(=O)NCCc1cnc[nH]1)C(=O)*; hArg(Et2) = CCN=C(NCC)NCCCC[C@H](N)C(=O)O; Gly(NCH2CH2Ph) = O=C(O)CNCCc1ccccc1; PEG6 = NCCOCCOCCOCCOCCOCCOCCC(=O)O; Hyp = O=C(O)[C@@H]1C[C@@H](O)CN1; Hpg = N[C@H](C(=O)O)c1ccc(O)cc1; NMeN = CN[C@@H](CC(N)=O)C(=O)O; Aoc(2) = CCCCCC[C@H](N)C(=O)O; NMeL = CN[C@@H](CC(C)C)C(=O)O; Ahp(2) = CCCCC[C@H](N)C(=O)O; Phg = N[C@H](C(=O)O)c1ccccc1; Nle = CCCC[C@H](N)C(=O)O

Columns and labels:
[1] = target: T1, human orexin type 2 receptor (hOX2R) (Homo sapiens, UniProt O43614); experiment: Measurement of orexin type 2 receptor agonist activity (FLIPR TETRA intracellular Ca2+ fluorescence); type: cell-based
T1 construct: expressed in transfected cells
T1 sequence (O43614 1-444): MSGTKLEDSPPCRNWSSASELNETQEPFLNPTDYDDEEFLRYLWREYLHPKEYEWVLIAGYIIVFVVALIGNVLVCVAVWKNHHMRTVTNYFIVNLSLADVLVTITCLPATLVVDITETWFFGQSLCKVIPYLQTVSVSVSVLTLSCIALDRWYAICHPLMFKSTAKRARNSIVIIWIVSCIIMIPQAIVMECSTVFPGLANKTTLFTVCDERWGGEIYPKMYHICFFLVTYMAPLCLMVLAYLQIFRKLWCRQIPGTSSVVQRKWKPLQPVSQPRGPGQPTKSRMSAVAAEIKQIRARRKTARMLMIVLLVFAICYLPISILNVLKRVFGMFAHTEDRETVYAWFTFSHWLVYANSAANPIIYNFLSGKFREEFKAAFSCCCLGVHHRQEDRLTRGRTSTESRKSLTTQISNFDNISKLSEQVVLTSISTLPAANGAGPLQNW
Experimental: (§1) Stable cell line generation. Obtainment of cells stably expressing either human orexin type 2 or human orexin type 1 receptor: to obtain a stable cell line the Orexin receptor cDNA was inserted into pcDNA3.1(+) plasmid vector and clones identified by G418 drug resistance selection. […] A single clone for OX2R—CHO and OX1R—CHO were grown in bulk and frozen to generate a cell bank for routine screening.
(§2) Measurement of orexin type 2 receptor agonist activity. Chinese hamster ovary (CHO) cells expressing human orexin type 2 receptor (hOX2R) seeded in each well of 384 well black clear bottom plates (BD Flacon) at 10,000 cells per well and cultured for 24 h in an Ham's F12 (Gibco) medium containing 10% fetal calf serum (Sigma Aldrich) under the conditions of 37° C., 5% CO2. After removal of the medium, 50 μL of assay buffer 1 (0.1% bovine serum albumin (Sigma Aldrich), 20 mM HEPES (Molecular Dimensions), […] probenecid (Sigma Aldrich), 1× Calcium 5 dye (Molecular Devices) in Hank's balanced salt solution (Invitrogen)) was added, and the cells were incubated for 60 min under the conditions of 37° C., 5% CO2. A test peptide was dissolved in dimethyl sulfoxide (Sigma Aldrich) to 1 mM, and then diluted with assay buffer 2 (20 mM HEPES, Hank's balanced salt solution, 0.1% bovine serum albumin). For the reaction, a test peptide solution (10 μl) was added using Fluorescent Imaging Plate Reader TETRA (FLIPR TETRA: manufactured by Molecular Devices), a fluorescence value (excitation wavelength 488 nm, measurement wavelength 570 nm) of each well was measured every one second for 2 min, and the agonist activity was determined using the area of the fluorescence value as an indicator of intracellular Ca^2+ concentration. The agonist activity of the test peptide was calculated assuming that the fluorescence value of the well added with only the dilution buffer was 0% and the fluorescence value of the well added with 10 nM human orexin A (Tocris) buffer was 100%. As used herein, Emax indicates the value at 1 μM concentration when orexin A is converted to a full agonist (maximum value of agonist activity: 100%).

[2] = target: T2, human orexin type 1 receptor (hOX1R) (Homo sapiens, UniProt O43613); experiment: Measurement of orexin type 1 receptor agonist activity (FLIPR TETRA intracellular Ca2+ fluorescence); type: cell-based
T2 construct: expressed in transfected cells
T2 sequence (O43613 1-425): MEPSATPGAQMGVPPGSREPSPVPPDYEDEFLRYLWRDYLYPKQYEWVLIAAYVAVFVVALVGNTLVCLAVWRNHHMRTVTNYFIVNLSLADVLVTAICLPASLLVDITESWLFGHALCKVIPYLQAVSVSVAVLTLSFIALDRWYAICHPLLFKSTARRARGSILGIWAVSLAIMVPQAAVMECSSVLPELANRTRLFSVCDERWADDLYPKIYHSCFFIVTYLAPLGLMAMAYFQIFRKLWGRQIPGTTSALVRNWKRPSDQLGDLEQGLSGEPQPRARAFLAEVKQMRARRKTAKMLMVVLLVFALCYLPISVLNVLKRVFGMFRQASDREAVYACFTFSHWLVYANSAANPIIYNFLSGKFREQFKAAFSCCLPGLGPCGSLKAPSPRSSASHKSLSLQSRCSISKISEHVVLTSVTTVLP
Experimental: as §1
as §2, with “type 1” for “type 2”, “receptor (hOX1R) were” for “receptor (hOX2R)”

OX2R [3] = conditions: subcutaneous, cited from earlier work
individuals with NT1 = conditions: initial clinical studies; cited from earlier work
OX2R [4] = target: T3, OX2R (Mus musculus, UniProt P58308); conditions: cited from earlier work
T3 construct: host or cells: mice in vivo (WT, orexin ligand-deficient, NT1 model, OX2R-knockout)
T3 sequence (P58308 1-460): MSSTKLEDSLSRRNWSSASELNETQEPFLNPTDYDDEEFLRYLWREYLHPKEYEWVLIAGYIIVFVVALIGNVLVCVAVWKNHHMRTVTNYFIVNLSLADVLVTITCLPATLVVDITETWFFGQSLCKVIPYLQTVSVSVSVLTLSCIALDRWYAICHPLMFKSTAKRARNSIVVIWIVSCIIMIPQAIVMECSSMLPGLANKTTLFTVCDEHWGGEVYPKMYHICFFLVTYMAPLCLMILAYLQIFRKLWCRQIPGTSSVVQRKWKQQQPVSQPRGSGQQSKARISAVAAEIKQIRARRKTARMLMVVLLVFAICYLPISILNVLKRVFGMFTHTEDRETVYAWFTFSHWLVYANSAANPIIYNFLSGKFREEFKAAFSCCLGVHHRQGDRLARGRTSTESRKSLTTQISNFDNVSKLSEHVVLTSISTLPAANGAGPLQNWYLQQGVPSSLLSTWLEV

[5] = test system: orexin-neuron ablated mice; conditions: ICV; cited from earlier work
[6] = CHO cells expressing hOX2R, agonist activity, Ca2+ fluorescence, read-out: hOX2 pEC50 (converted)
[7] = CHO cells expressing hOX1R, agonist activity, Ca2+ fluorescence, read-out: hOX1 pEC50 (converted)

## CCCCCC[C@H](NC(=O)[C@@H](NC(=O)[C@H](CC(C)C)NC(=O)[C@@H](NC(=O)CNC(=O)[C@@H](NC(=O)[C@H](C)NC(=O)[C@H](Cc1c[nH]cn1)NC(=O)[C@H](CC(N)=O)NC(=O)CN(CCc1ccccc1)C(=O)[C@H](CCCCNC(=NCC)NCC)NC(=O)C(C)(C)C(=O)NCCc1cnc[nH]1)c1ccc(O)cc1)[C@@H](C)CC)[C@@H](C)O)C(N)=O [Peptide 25] ({Malonyl(2,2-Me2,histaminyl)}-[hArg(Et2)][Gly(NCH2CH2Ph)]NHA[Hpg]GILT[Aoc(2)]-NH2)
[1]
  EC50: < 0.1 nM
[2]
  EC50: > 10 nM

## CCCCCC[C@H](NC(=O)[C@@H](NC(=O)[C@H](CC(C)C)NC(=O)[C@@H](NC(=O)CNC(=O)[C@@H](NC(=O)[C@H](C)NC(=O)[C@H](Cc1c[nH]cn1)NC(=O)[C@H](CC(N)=O)NC(=O)CN(CCc1ccccc1)C(=O)[C@H](CCCCNC(=NCC)NCC)NC(=O)[C@H](CCC(N)=O)NC(=O)C(C)(C)C(=O)NCCc1cnc[nH]1)c1ccccc1)[C@@H](C)CC)[C@@H](C)O)C(N)=O [Peptide 26] ({Malonyl(2,2-Me2,histaminyl)}-Q[hArg(Et2)][Gly(NCH2CH2Ph)]NHA[Phg]GILT[Aoc(2)]-NH2)
[1]
  EC50: < 0.1 nM
[2]
  EC50: > 10 nM

## CCCCC[C@H](NC(=O)[C@@H](NC(=O)[C@H](CC(C)C)NC(=O)[C@@H](NC(=O)CNC(=O)[C@@H](NC(=O)[C@H](C)NC(=O)[C@@H]1C[C@@H](O)CN1C(=O)[C@H](CC(N)=O)NC(=O)CN(CCc1ccccc1)C(=O)[C@H](CCCNC(=N)N)NC(=O)CCOCCOCCOCCOCCOCCOCCN)c1ccccc1)[C@@H](C)CC)[C@@H](C)O)C(N)=O [Peptide 27] (H-[PEG6]R[Gly(NCH2CH2Ph)]N[Hyp]A[Phg]GILT[Ahp(2)]-NH2)
[1]; [6]
  EC50: < 0.1 nM
[2]; [7]
  EC50: > 10 nM

## CCCC[C@H](NC(=O)[C@@H](NC(=O)[C@H](CC(C)C)NC(=O)[C@@H](NC(=O)CNC(=O)[C@@H](NC(=O)[C@H](C)NC(=O)[C@@H]1C[C@@H](O)CN1C(=O)[C@H](CC(N)=O)NC(=O)CN(CCc1ccccc1)C(=O)[C@H](CCCNC(=N)N)NC(=O)CCOCCOCCOCCOCCOCCOCCN)c1ccccc1)[C@@H](C)CC)[C@@H](C)O)C(N)=O [Peptide 28] (H-[PEG6]R[Gly(NCH2CH2Ph)]N[Hyp]A[Phg]GILT[Nle]-NH2)
[1]; [6]
  EC50: < 0.1 nM
[2]; [7]
  EC50: > 10 nM

## CCCCCC[C@H](NC(=O)[C@@H](NC(=O)[C@H](CC(C)C)N(C)C(=O)[C@@H](NC(=O)CNC(=O)[C@@H](NC(=O)[C@H](C)NC(=O)[C@@H]1C[C@@H](O)CN1C(=O)[C@H](CC(N)=O)NC(=O)CN(CCc1ccccc1)C(=O)[C@H](CCCNC(=N)N)NC(=O)CCOCCOCCOCCOCCOCCOCCN)c1ccccc1)[C@@H](C)CC)[C@@H](C)O)C(N)=O [Peptide 29] (H-[PEG6]R[Gly(NCH2CH2Ph)]N[Hyp]A[Phg]GI[NMeL]T[Aoc(2)]-NH2)
[1]; [6]
  EC50: < 0.1 nM
[2]; [7]
  EC50: > 10 nM

## CCCCC[C@H](NC(=O)[C@@H](NC(=O)[C@H](CC(C)C)NC(=O)[C@@H](NC(=O)CNC(=O)[C@@H](NC(=O)[C@H](C)NC(=O)[C@@H]1C[C@@H](O)CN1C(=O)[C@H](CC(N)=O)N(C)C(=O)CN(CCc1ccccc1)C(=O)[C@H](CCCNC(=N)N)NC(=O)CCOCCOCCOCCOCCOCCOCCN)c1ccccc1)[C@@H](C)CC)[C@@H](C)O)C(N)=O [Peptide 30] (H-[PEG6]R[Gly(NCH2CH2Ph)][NMeN][Hyp]A[Phg]GILT[Ahp(2)]-NH2)
[1]; [6]
  EC50: < 0.1 nM
[2]; [7]
  EC50: > 10 nM

## CCCCCC[C@H](NC(=O)[C@@H](NC(=O)[C@H](CC(C)C)N(C)C(=O)[C@@H](NC(=O)CNC(=O)[C@@H](NC(=O)[C@H](C)NC(=O)[C@@H]1C[C@@H](O)CN1C(=O)[C@H](CC(N)=O)N(C)C(=O)CN(CCc1ccccc1)C(=O)[C@H](CCCNC(=N)N)NC(=O)CCOCCOCCOCCOCCOCCOCCN)c1ccccc1)[C@@H](C)CC)[C@@H](C)O)C(N)=O [Peptide 31] (H-[PEG6]R[Gly(NCH2CH2Ph)][NMeN][Hyp]A[Phg]GI[NMeL]T[Aoc(2)]-NH2)
[1]; [6]
  EC50: < 0.1 nM
[2]; [7]
  EC50: > 10 nM

## COC(=O)N1CCC[C@H](NS(C)(=O)=O)[C@@H]1CO[C@H]1CC[C@@H](c2ccccc2)CC1 [TAK-925]
OX2R [3]; OX2R-knockout mice
  wakefulness: not in OX2R-knockout mice
OX2R [3]; WT mice
  wakefulness: modestly increased wakefulness
Individuals with NT1
  cataplexy: trends for decreasing cataplexy
  wakefulness: substantial levels of increased wakefulness

## COc1ccc(-c2cccc(C(=O)N(C)C)c2)cc1S(=O)(=O)Nc1cccc(NCCNC(=O)c2ccccc2N(C)C)c1 [YNT-185]
OX2R [4]; NT1 mouse model
  sleep-onset REM periods and cataplexy-like events: decreases sleep-onset REM periods and cataplexy-like events
OX2R [4]; intraperitoneally or ICV, wild type (WT) and orexin ligand-deficient mice
  wakefulness: modestly increases wakefulness

## orexin A (QPLPDCCRQKTCSCRLYELLHGAGNHAAGILTL; ends and bridges not checked; cysteine pairing not given here; UniProt O43612 34-66, looked up) [orexin A (OXA), orexin neuropeptide cleaved from prepro-orexin]
[5]
  cataplexy-like behavior: decreases cataplexy-like behavior
  time spent awake: increase time spent awake
